According to US11077035B2, “Hair treatment compositions and methods” (SYTHEON LIMITED, priority 2017, dated 2021):

What was measured:
[1] = Chelation study 2C: Fe^2+ chelation; conditions: for % Remaining of FL (20 min) / % Remaining of FL (40 min) / % Remaining of FL (80 min): Fe^2+ ions 200 μM
Singlet oxygen quenching = format: biochemical
Text: The first study evaluated the quenching ability of the aryl alkanones versus αTocopherol. The test methodology employed is the method of W. Mullen et al., J of Agriculture & Food Chemistry, 59(9):3754-3762, 2011).

[2] = for change in fluorescence decay pattern with and without ten-fold excess of CaCl2 (selectivity Cu^2+ over Ca^2+): comparison of studies 2A and 2B; for Cu^2+ chelation capability, in words: with CaCl2 (study 2A)
Description: Food Chem: 50(10); 2772-2777, 2002
The first chelation study (2A) evaluated the Cu^2+ chelation capability of the test and comparative chelators in the presence of excess Ca^2+. Here, a Fenton reaction was initiated with a mixture of Cu^2+, CaCl2 and hydrogen peroxide at alkaline condition, the mixture comprising [CuCl2]=200 μM, [H2O2]=0.055 μM, [CaCl2]2.3 mM, and [FL]=6.20×10^−8 M. The test compounds were evaluated at a concentration of 600 μM for each of Compounds 1D, 1E and 1F and Deferiprone (a 3 molar excess) and 200 μM for each of EDDS and EDTA.

[3] = Stability under singlet oxygen environment (HPLC); format: physicochemical
Description: A second study was performed to determine the stability of the aryl alkanones and α tocopherol under a singlet oxygen environment. In this study, 5 ml of 1 mg/ml solution of each test compound (in DMSO) was mixed with 5 ml of a solution (pH 5) containing 0.16 mg/ml lithium molybdate, 4 ml 0.01 M NaOH, and 5 ml of 0.015% H2O2. 500 μl from each mixture was taken every 2 mins and added to 1 ml of 1 mg/ml curcumin solution (in DMSO) to stop the reaction. The mixture was then injected into an HPLC to monitor product degradation.

[4] = Chelation study 2D: Fe^3+ chelation; conditions: for % Remaining of FL (20 min) / % Remaining of FL (40 min) / % Remaining of FL (80 min): Fe^3+ ions; for Fe^3+ chelation capability, in words: study 2D

Structure (SMILES) | % Remaining of FL (20 min) [1] | % Remaining of FL (40 min) [1] | % Remaining of FL (80 min) [1] | Antioxidant Power against singlet oxygen (Singlet oxygen quenching) | change in fluorescence decay pattern with and without ten-fold excess of CaCl2 (selectivity Cu^2+ over Ca^2+) [2] | Cu^2+ chelation capability, in words [2] | Fe^3+ chelation capability, in words [4] | further results
COc1cc(CC(C(C)=O)C(C)=O)ccc1O [Compound 1M, 3-(3-methoxy-4-hydroxybenzyl)-2,4-pentanedione] |  |  |  | 7,180 μmole Trolox equivalent/g |  |  |  | Stability % Product remaining ([3]; 2 min, 0.5 mg/ml, pH 5): 95%; Stability % Product remaining ([3]; 4 min, 0.5 mg/ml, pH 5): 91%; Stability % Product remaining ([3]; 0.1 h, 0.5 mg/ml, pH 5): 88%; Stability % Product remaining ([3]; 8 min, 0.5 mg/ml, pH 5): 85%; Stability % Product remaining ([3]; 10 min, 0.5 mg/ml, pH 5): 82%; % Remaining of FL (20 min) [4]: 100%; % Remaining of FL (40 min) [4]: 100%; % Remaining of FL (80 min) [4]: 100%
CCOC(=O)C(C)C(Cc1ccc(O)c(OC)c1)C(C)=O (stereo not shown) [Compound 2M, 3-(3-methoxy-4-hydroxybenzyl)-4-ethylester-2-pentanone] |  |  |  |  |  |  |  | % Remaining of FL (20 min) [4]: 99.8%; % Remaining of FL (40 min) [4]: 99.3%; % Remaining of FL (80 min) [4]: 98.5%
Cc1c(O)c(=O)ccn1C [Deferiprone, reference compound] |  |  |  |  |  | moderate chelation capability | performed poorly | Fe^2+ chelation capability, in words ([1]; study 2C): good chelation capability
CC(=O)N(O)CCCCCNC(=O)CCC(=O)N(O)CCCCCNC(=O)CCC(=O)N(O)CCCCCN [Desferal, reference compound] |  |  |  |  |  |  | moderate chelating capabilities | 
O=C(O)CC(NCCNC(CC(=O)O)C(=O)O)C(=O)O (stereo not shown) [EDDS, ethylenediamine-N,N′-disuccinic acid, reference compound] |  |  |  |  |  | poor chelating capabilities |  | chelation of copper, in words ([2]; general statement on applicant's studies in the background): not an effective chelating agent
O=C(O)CN(CCN(CC(=O)O)CC(=O)O)CC(=O)O [EDTA, ethylenediamine tetraacetic acid, reference compound] |  |  |  |  |  | poor chelating capabilities | moderate chelating capabilities | 
Cc1c(C)c2c(c(C)c1O)CC[C@@](C)(CCC[C@H](C)CCC[C@H](C)CCCC(C)C)O2 [α Tocopherol, reference compound] |  |  |  | 2,636 μmole Trolox equivalent/g |  |  |  | Stability % Product remaining ([3]; singlet oxygen environment (lithium molybdate/H2O2), 2 min): 73%; Stability % Product remaining ([3]; singlet oxygen environment (lithium molybdate/H2O2), 4 min): 58%; Stability % Product remaining ([3]; singlet oxygen environment (lithium molybdate/H2O2), 6 min): 47%; Stability % Product remaining ([3]; singlet oxygen environment (lithium molybdate/H2O2), 8 min): 39%; Stability % Product remaining ([3]; singlet oxygen environment (lithium molybdate/H2O2), 10 min): 35%

Now from value to compound, other results behind:

% Remaining of FL (20 min) [1] | % Remaining of FL (40 min) [1] | % Remaining of FL (80 min) [1] | Structure (SMILES) | Antioxidant Power against singlet oxygen (Singlet oxygen quenching) | change in fluorescence decay pattern with and without ten-fold excess of CaCl2 (selectivity Cu^2+ over Ca^2+) [2] | Cu^2+ chelation capability, in words [2] | Fe^3+ chelation capability, in words [4] | further results
98.3% | 98.3% | 98.3% | COc1ccc(CC(C(C)=O)C(C)=O)cc1OC [Compound 1D, 3-(3,4-dimethoxybenzyl)-2,4-pentanedione] | 4,590 μmole Trolox equivalent/g | very little change | almost completely chelated |  | 
99.6% | 99.2% | 99.2% | COc1ccc(CC(C(C)=O)C(C)=O)cc1 [Compound 1E, 3-(4-methoxybenzyl)-2,4-pentanedione] | 4,374 μmole Trolox equivalent/g | very little change | almost completely chelated |  | 
98.6% | 98.1% | 97.7% | COc1cc(CC(C(C)=O)C(C)=O)cc(OC)c1OC [Compound 1F, 3-(3,4,5-trimethoxybenzyl)-2,4-pentanedione] | 6,359 μmole Trolox equivalent/g | very little change | almost completely chelated |  | Stability % Product remaining ([3]; 2 min, 0.5 mg/ml, pH 5): 92%; Stability % Product remaining ([3]; 4 min, 0.5 mg/ml, pH 5): 87%; Stability % Product remaining ([3]; 0.1 h, 0.5 mg/ml, pH 5): 85%; Stability % Product remaining ([3]; 8 min, 0.5 mg/ml, pH 5): 81%; Stability % Product remaining ([3]; 10 min, 0.5 mg/ml, pH 5): 80%
